Laboratory results reported in article PMC9238401, “Peptide Conjugates Derived from flg15, Pep13, and PIP1 That Are Active against Plant-Pathogenic Bacteria and Trigger Plant Defense Responses” (Applied and Environmental Microbiology, 2022).
Non-standard residues stand in square brackets, D forms with d. Residues, ends and D or L forms follow the SMILES beside them. *: point of attachment. Butyryl = CCCC(=O)*

How the values were obtained:
[1] = system: Erwinia amylovora PMV6076; assay: In vitro growth inhibition (MIC); format: cell-based; conditions: TSB, 25°C, 48 h, OD 600 nm (Bioscreen C), three replicates, experiment repeated twice; MIC = lowest concentration with no growth, given as range
Outline: (§1)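 Bacterial suspensions (10^8 CFU mL^−1, from 24 h plates at 25°C) mixed with peptide dilutions in TSB, triplicate wells. OD600 read hourly over 48 h at 25°C with shaking. MIC = lowest concentration with no growth at end of run.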

[2] = system: Pseudomonas syringae pv. actinidiae Psa3700.1.1; assay: In vitro growth inhibition (MIC); format: cell-based; conditions: TSB, 25°C, 48 h, OD 600 nm (Bioscreen C), three replicates, experiment repeated twice; MIC given as range
Outline: as §1

[3] = system: Pseudomonas syringae pv. syringae EPS94; assay: In vitro growth inhibition (MIC); format: cell-based; conditions: TSB, 25°C, 48 h, OD 600 nm (Bioscreen C), three replicates, experiment repeated twice; MIC given as range
Outline: as §1

[4] = system: Xanthomonas arboricola pv. pruni CFBP5563; assay: In vitro growth inhibition (MIC); format: cell-based; conditions: TSB, 25°C, 48 h, OD 600 nm (Bioscreen C), three replicates, experiment repeated twice; MIC given as range
Outline: as §1

[5] = system: Xanthomonas fragariae Xf349-9A; assay: In vitro growth inhibition (MIC); format: cell-based; conditions: TSB, 25°C, 48 h, OD 600 nm (Bioscreen C), three replicates, experiment repeated twice; MIC given as range
Outline: as §1

[6] = system: Xanthomonas axonopodis pv. vesicatoria 2133-2; conditions: TSB, 25°C, 48 h, OD 600 nm (Bioscreen C), three replicates, experiment repeated twice; MIC given as range
Outline: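 Bacteria grown 24 h (48 h for Xanthomonas axonopodis, X. fragariae) at 25°C, suspended at 10^8 CFU mL^−1, mixed with peptide dilutions in TSB.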

horse erythrocytes = conditions: TRIS buffer pH 7.2, 1 h, 37°C, absorbance 540 nm, relative to melittin 100 μM, ± confidence interval (α = 0.05)
Outline: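 Horse erythrocytes washed in 10 mM Tris, 150 mM NaCl, pH 7.2 were mixed 1:1 with compound solutions at 750, 500, 300 and 100 μM and shaken 1 h at 37°C. Hemoglobin release read at 540 nm in supernatant; % hemolysis relative to buffer and melittin control.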

tobacco leaves = assay: Effect of peptide infiltration on tobacco leaves (phytotoxicity); format: in vivo
Outline: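 Peptide solutions at 50, 150 and 250 μM were infiltrated into the mesophyll of fully expanded tobacco leaves, with at least three leaves per peptide and dose on different plants. Water and equimolar melittin served as controls. Lesion diameter was measured 48 h after infiltration.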

[7] = 100 μL infiltrated into mesophyll, lesion diameter 48 h after infiltration, at least three leaves, ± confidence interval (α = 0.05)

Compound | MIC, Ea [1] [µM] | MIC, Psa [2] [µM] | MIC, Pss [3] [µM] | MIC, Xap [4] [µM] | MIC, Xf [5] [µM] | MIC, Xav [6] [µM] | Percent hemolysis at 50 μM (horse erythrocytes) [%] | Percent hemolysis at 150 μM (horse erythrocytes) [%] | Percent hemolysis at 250 μM (horse erythrocytes) [%] | Percent hemolysis at 375 μM (horse erythrocytes) [%] | Size of the lesions in infiltrated tobacco leaves at 50 μM (tobacco leaves; in vivo) [cm] | Size of the lesions in infiltrated tobacco leaves at 150 μM (tobacco leaves; in vivo) [cm] | Size of the lesions in infiltrated tobacco leaves at 250 μM (tobacco leaves; in vivo) [cm] | Size of the lesions in infiltrated tobacco leaves at 50 μM (tobacco leaves; [7]) [cm] | Size of the lesions in infiltrated tobacco leaves at 150 μM (tobacco leaves; [7]) [cm] | Size of the lesions in infiltrated tobacco leaves at 250 μM (tobacco leaves; [7]) [cm]
YGIHTH-NH2 [PIP1, plant defense elicitor peptide identified through combinatorial chemistry; monomer] | > 50 | > 50 | > 50 | > 50 | > 50 | > 50 | 4 ± 0.8 | 0.5 ± 0.3 | 0 ± 2 | 1 ± 0.1 | 0 ± 0 | 0 ± 0 | 0 ± 0 |  |  | 
RINSAKDDAAGLQIA-OH [flg15, plant defense elicitor peptide, 15 amino acids of the N-terminal conserved domain of bacterial flagellin; monomer] | > 100 | > 100 | > 100 | > 100 | > 100 | > 100 | 0 ± 0 | 0 ± 0 | 0 ± 0 | 0 ± 0 |  |  |  | 0 ± 0 | 0 ± 0 | 0 ± 0
CCCC(=O)NCCCC[C@H](NC(=O)[C@H](CCCCN)NC(=O)[C@H](CC(C)C)NC(=O)[C@@H](NC(=O)[C@H](CCCCN)NC(=O)[C@H](CCCCN)NC(=O)[C@@H](Cc1ccccc1)NC(=O)[C@H](CC(C)C)NC(=O)[C@H](CCCCN)NC(=O)[C@H](CCCCN)NC(=O)[C@H](Cc1c[nH]cn1)NC(=O)[C@@H](NC(=O)[C@H](Cc1c[nH]cn1)NC(=O)[C@@H](NC(=O)CNC(=O)[C@H](Cc1ccc(O)cc1)NC(C)=O)[C@@H](C)CC)[C@@H](C)O)[C@@H](C)CC)C(=O)N[C@@H](CC(C)C)C(N)=O [PIP1-BP475] (Ac-YGIHTHKKL[dF]KKILKK(Butyryl)L-NH2) | 3.1 to 6.2 | 1.6 to 3.1 | 3.1 to 6.2 | < 0.8 | 12.5 to 25 | < 0.8 | 4 ± 0.4 | 11 ± 0.5 | 18 ± 0.1 | 24 ± 0.5 |  |  |  | 0.47 ± 0.13 | 1.03 ± 0.06 | 1.17 ± 0.06
CCCC(=O)NCCCC[C@H](NC(=O)[C@H](CCCCN)NC(=O)[C@H](CC(C)C)NC(=O)[C@@H](NC(=O)[C@H](CCCCN)NC(=O)[C@H](CCCCN)NC(=O)[C@@H](Cc1ccccc1)NC(=O)[C@H](CC(C)C)NC(=O)[C@H](CCCCN)NC(=O)[C@H](CCCCN)NC(=O)[C@H](C)NC(=O)[C@@H](NC(=O)[C@H](CCC(N)=O)NC(=O)[C@H](CC(C)C)NC(=O)CNC(=O)[C@H](C)NC(=O)[C@H](C)NC(=O)[C@H](CC(=O)O)NC(=O)[C@H](CC(=O)O)NC(=O)[C@H](CCCCN)NC(=O)[C@H](C)NC(=O)[C@H](CO)NC(=O)[C@H](CC(N)=O)NC(=O)[C@@H](NC(=O)[C@H](CCCNC(=N)N)NC(C)=O)[C@@H](C)CC)[C@@H](C)CC)[C@@H](C)CC)C(=O)N[C@@H](CC(C)C)C(N)=O [flg15-BP475] (Ac-RINSAKDDAAGLQIAKKL[dF]KKILKK(Butyryl)L-NH2) | 3.1 to 6.2 | 3.1 to 6.2 | 12.5 to 25 | < 0.8 | 6.2 to 12.5 | < 0.8 | 7 ± 0.6 | 28 ± 2.3 | 43 ± 2.7 | 46 ± 3.6 |  |  |  | 0.60 ± 0 | 1.20 ± 0 | 1.37 ± 0.06
